target: human σ1 receptor (Homo sapiens, UniProt Q99720); assay: Human σ1 receptor radioligand assay ([3H](+)-pentazocine, transfected HEK-293 membranes); type: binding; parameters: μ and σ1 dual binding: key to the marks not given beside the values; details: one class symbol for both Ki-σ1 (human σ1 receptor, A1) and Ki-μ (human μ-opioid receptor, A2)
Method in brief: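 Membranes from HEK-293 cells transfected with human σ1 receptor (7 μg) incubated with 5 nM [3H](+)-pentazocine in 50 mM Tris-HCl pH 8, 120 min at 37° C. Non-specific binding defined with 10 μM haloperidol. Bound radioligand separated by filtration, washed with ice-cold 10 mM Tris-HCl pH 7.4, and counted by scintillation.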

Sequence of human σ1 receptor (Q99720 whole entry): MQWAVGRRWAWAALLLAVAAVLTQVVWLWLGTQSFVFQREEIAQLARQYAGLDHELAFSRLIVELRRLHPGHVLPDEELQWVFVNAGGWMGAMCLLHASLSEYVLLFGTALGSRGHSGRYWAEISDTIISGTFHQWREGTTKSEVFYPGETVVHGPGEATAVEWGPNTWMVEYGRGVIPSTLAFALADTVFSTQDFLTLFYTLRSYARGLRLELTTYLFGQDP

Structure (SMILES)	μ and σ1 dual binding
O=C(c1ccccn1)C1(N2CCN(Cc3ccc(F)cc3)CC2)CCOCC1 [Example 181, (4-(4-(4-fluorobenzyl)piperazin-1-yl)tetrahydro-2H-pyran-4-yl)(pyridin-2-yl)methanone]	++
CC[C@]1(N2CCN(CCc3ccccc3)CC2)CCO[C@@H](C)C1 (stereo in doubt) [Example 46, 1-(4-ethyl-2-methyltetrahydro-2H-pyran-4-yl)-4-phenethylpiperazine]	++
C[C@H]1C[C@@](C(=O)c2ccccn2)(N2CCN(Cc3ccccc3)CC2)CCO1 [Example 155, ((2S,4S)-4-(4-benzylpiperazin-1-yl)-2-methyltetrahydro-2H-pyran-4-yl)(pyridin-2-yl)methanone]	++
CC[C@@]1(N2CCN(Cc3ccc(C#N)cc3)CC2)CCO[C@@H](C)C1 (stereo in doubt) [Example 186, 4-((4-(4-ethyl-2-methyltetrahydro-2H-pyran-4-yl)piperazin-1-yl)methyl)benzonitrile]	++
CC(C)OCCN1CCN(C2(C)CCOC(C)(C)C2)CC1 (stereo not drawn) [Example 37, 1-(2-isopropoxyethyl)-4-(2,2,4-trimethyltetrahydro-2H-pyran-4-yl)piperazine]	++
N#Cc1cccc(CN2CCN(C3(c4ccccc4)CCOC4(CCCC4)C3)CC2)c1 (stereo not drawn) [Example 121, 3-((4-(9-phenyl-6-oxaspiro[4.5]decan-9-yl)piperazin-1-yl)methyl)benzonitrile]	++
OC(c1ccccn1)C1(C2CCN(Cc3ccccc3)CC2)CCOCC1 (stereo not drawn) [Example 130, (4-(1-benzylpiperidin-4-yl)tetrahydro-2H-pyran-4-yl)(pyridin-2-yl)methanol]	++
CC(C)OCCN1CCN(C2(C(=O)c3ccccn3)CC(C)(C)OC(C)(C)C2)CC1 [Example 72, (4-(4-(2-isopropoxyethyl)piperazin-1-yl)-2,2,6,6-tetramethyltetrahydro-2H-pyran-4-yl)(pyridin-2-yl)methanone]	++
CC1(C)CC(C(=O)c2ccccn2)(N2CCN(Cc3ccccn3)CC2)CCO1 (stereo not drawn) [Example 50, (2,2-dimethyl-4-(4-(pyridin-2-ylmethyl)piperazin-1-yl)tetrahydro-2H-pyran-4-yl)(pyridin-2-yl)methanone]	++
C[C@@H]1C[C@@](C(=O)c2ccccn2)(N2CCN(Cc3ccccc3)CC2)CCO1 [Example 28]	++
CC[C@]1(N2CCN(CCC(C)C)CC2)CCO[C@@H](C)C1 [Example 159, 1-((2S,4S)-4-ethyl-2-methyltetrahydro-2H-pyran-4-yl)-4-isopentylpiperazine]	++
CC(C)OCCN1CCN(C2(C(=O)c3ccccn3)CCOCC2)CC1 [Example 185, (4-(4-(2-isopropoxyethyl)piperazin-1-yl)tetrahydro-2H-pyran-4-yl)(pyridin-2-yl)methanone]	++
CC(C)(O)CCN1CCN(C2(C(=O)c3ccccn3)CCOC(C)(C)C2)CC1 (stereo not drawn) [Example 90, (4-(4-(3-hydroxy-3-methylbutyl)piperazin-1-yl)-2,2-dimethyltetrahydro-2H-pyran-4-yl)(pyridin-2-yl)methanone]	++
CCC1(N2CCN(CCc3ccccn3)CC2)CCOC(C)(C)C1 (stereo not drawn) [Example 87, 1-(4-ethyl-2,2-dimethyltetrahydro-2H-pyran-4-yl)-4-(2-(pyridin-2-yl)ethyl)piperazine]	++
CC[C@@]1(N2CCN(CCOC(C)C)CC2)CCO[C@@H](C)C1 [Example 158, 1-((2S,4R)-4-ethyl-2-methyltetrahydro-2H-pyran-4-yl)-4-(2-isopropoxyethyl)piperazine]	++
CC(C)OCCN1CCN([C@@]2(C(=O)c3ccccn3)CCOC2)CC1 [Example 243, (S)-(3-(4-(2-isopropoxyethyl)piperazin-1-yl)tetrahydrofuran-3-yl)(pyridin-2-yl)methanone]	++
CC1(N2CCN(Cc3ccc(F)cc3)CC2)CCOCC1 [Example 182, 1-(4-fluorobenzyl)-4-(4-methyltetrahydro-2H-pyran-4-yl)piperazine]	++
CC(C)CCN1CCN([C@@]2(C(=O)c3ccccn3)CCO[C@@H](C)C2)CC1 [Example 168]	++
CC1(C)CC(C(=O)c2ccccn2)(N2CCN(CCOCC(F)(F)F)CC2)CCO1 (stereo not drawn) [Example 69, (2,2-dimethyl-4-(4-(2-(2,2,2-trifluoroethoxy)ethyl)piperazin-1-yl)tetrahydro-2H-pyran-4-yl)(pyridin-2-yl)methanone]	++
CCC1(N2CCN(CCC(C)C)CC2)CCOCC1 [Example 180, 1-(4-ethyltetrahydro-2H-pyran-4-yl)-4-isopentylpiperazine]	++
CC(C)CCN1CCN(C2(C)CCOCC2)CC1 [Example 178, 1-isopentyl-4-(4-methyltetrahydro-2H-pyran-4-yl)piperazine]	++

same assay, conditions: one class symbol for both Ki-σ1 (human σ1 receptor, A1) and Ki-μ (human μ-opioid receptor, A2); read-out: μ and σ1 dual binding

Structure (SMILES)	Ki [µM]
CC1(C)CC(C(=O)c2ccccn2)(N2CCN(CCc3ccncc3)CC2)CCO1 (stereo not drawn) [Example 81, (2,2-dimethyl-4-(4-(2-(pyridin-4-yl)ethyl)piperazin-1-yl)tetrahydro-2H-pyran-4-yl)(pyridin-2-yl)methanone]	> 0.5
N#Cc1cc(CN2CCN(C3(C(=O)c4ccccn4)CCOCC3)CC2)ccc1F [Example 188, 2-fluoro-5-((4-(4-picolinoyltetrahydro-2H-pyran-4-yl)piperazin-1-yl)methyl)benzonitrile]	> 0.5
CC(C)CCN1CCN([C@]2(C(=O)c3ccccn3)CCO[C@@H](C)C2)CC1 [Example 169]	< 0.5
CC(C)OCCN1CCN([C@]2(C(=O)c3ccccn3)CCO[C@H](C)C2)CC1 [Example 189, ((2R,4R)-4-(4-(2-isopropoxyethyl)piperazin-1-yl)-2-methyltetrahydro-2H-pyran-4-yl)(pyridin-2-yl)methanone]	> 0.5
CC(C)OCCN1CCN([C@]2(C(=O)c3ccccn3)CCOC(C)(C)C2)CC1 [Example 135, (R)-(4-(4-(2-isopropoxyethyl)piperazin-1-yl)-2,2-dimethyltetrahydro-2H-pyran-4-yl)(pyridin-2-yl)methanone]	< 0.5
CC(C)OCCN(C)[C@@H]1CCN([C@]2(C(=O)c3ccccn3)CCOC(C)(C)C2)C1 [Example 144, ((R)-4-((R)-3-((2-isopropoxyethyl)(methyl)amino)pyrrolidin-1-yl)-2,2-dimethyltetrahydro-2H-pyran-4-yl)(pyridin-2-yl)methanone]	< 0.5
C=CC1(N2CCN(CCc3ccccc3)CC2)CCOC(C)(C)C1 (stereo not drawn) [Example 45, 1-(2,2-dimethyl-4-vinyltetrahydro-2H-pyran-4-yl)-4-phenethylpiperazine]	> 0.5

same assay, conditions: μ and σ1 dual binding, one class symbol for both Ki-σ1 (human σ1 receptor, A1) and Ki-μ (human μ-opioid receptor, A2)

Structure (SMILES)	Ki [µM]
c1ccc(CC2(N3CCN(Cc4cccnc4)CC3)CCOC3(CCCC3)C2)cc1 (stereo not drawn) [Example 122, 1-(9-benzyl-6-oxaspiro[4.5]decan-9-yl)-4-(pyridin-3-ylmethyl)piperazine]	< 0.5
CC(C)C1(N2CCN(CCc3cc(F)ccc3F)CC2)CCOC(C)(C)C1 (stereo not drawn) [Example 92, 1-(2,5-difluorophenethyl)-4-(4-isopropyl-2,2-dimethyltetrahydro-2H-pyran-4-yl)piperazine]	< 0.5
CN(Cc1ccccc1)[C@H]1CCN([C@@]2(C(=O)c3ccccn3)CCOC(C)(C)C2)C1 [Example 140, ((S)-4-((S)-3-(benzyl(methyl)amino)pyrrolidin-1-yl)-2,2-dimethyltetrahydro-2H-pyran-4-yl)(pyridin-2-yl)methanone]	< 0.5
CC1(C)CC(c2ccccc2)(N2CCN(Cc3ccccc3)CC2)CCO1 (stereo not drawn) [Example 35, 1-benzyl-4-(2,2-dimethyl-4-phenyltetrahydro-2H-pyran-4-yl)piperazine]	< 0.5
CC1(C)CC(C(=O)c2ccccn2)(N2CCN(Cc3ccc(F)cc3)CC2)CCO1 (stereo not drawn) [Example 60, (4-(4-(4-fluorobenzyl)piperazin-1-yl)-2,2-dimethyltetrahydro-2H-pyran-4-yl)(pyridin-2-yl)methanone]	< 0.5
CC1(C)CC(C(=O)c2ccccn2)(N2CCN(CCc3ccncc3Cl)CC2)CCO1 (stereo not drawn) [Example 57, (4-(4-(2-(3-chloropyridin-4-yl)ethyl)piperazin-1-yl)-2,2-dimethyltetrahydro-2H-pyran-4-yl)(pyridin-2-yl)methanone]	< 0.5
CCC1(N2CCN(CCc3cc(F)ccc3F)CC2)CCOC(C)(C)C1 (stereo not drawn) [Example 99, 1-(2,5-difluorophenethyl)-4-(4-ethyl-2,2-dimethyltetrahydro-2H-pyran-4-yl)piperazine]	< 0.5
CC(C)C1(N2CCN(Cc3ccccc3)CC2)CCOC(C)(C)C1 (stereo not drawn) [Example 43, 1-benzyl-4-(4-isopropyl-2,2-dimethyltetrahydro-2H-pyran-4-yl)piperazine]	< 0.5
CC(C)CCN(C)[C@@H]1CCN([C@@]2(C(=O)c3ccccn3)CCOC(C)(C)C2)C1 [Example 148, ((S)-4-((R)-3-(isopentyl(methyl)amino)pyrrolidin-1-yl)-2,2-dimethyltetrahydro-2H-pyran-4-yl)(pyridin-2-yl)methanone]	< 0.5
CC(C)CN1CCC(C2(c3ccccn3)CCOC(C)(C)C2)CC1 (stereo not drawn) [Example 126, 2-(4-(1-isobutylpiperidin-4-yl)-2,2-dimethyltetrahydro-2H-pyran-4-yl)pyridine]	> 0.5
CC1(C)CC(C(=O)c2ccccn2)(N2CCN(Cc3ccccc3)CC2)CCO1 (stereo not drawn) [Example 1, (4-(4-benzylpiperazin-1-yl)-2,2-dimethyltetrahydro-2H-pyran-4-yl)(pyridin-2-yl)methanone]	< 0.1
